These results are taken from patent publication US20220273809A1, “AXL ANTIBODY-DRUG CONJUGATES FOR USE IN TREATING CANCER” (GENMAB A/S, priority 2019, published 2022).

In assay [1] the test system is BLM human melanoma cell line-derived xenograft. Description: BLM melanoma xenograft model with MART-1-specific human T cells. As to conditions: ADC single dose 4 mg/kg i.v. with control or MART-1 T cells; anti-PD1 5 mg/kg weekly i.p. with MART-1 T cells and control ADC. Type of assay: in vivo, mice. The procedure: The anti-tumor activity of IgG1-AXL-107-vcMMAE in combination with anti-PD1 (pembrolizumab) was evaluated in the BLM human melanoma cell line-derived xenograft model in mice, which systemically received human T-cells that were engineered to express a melanoma-specific T-cell receptor (TCR) against MART-1. Before inoculation of mice with BLM cells, the BLM cells were transduced with the antigen (MART-1) as well as the correct HLA haplotype (HLA-A2) in order for the MART-1-specific T cells to recognize the tumor cells.
Melanoma cell line BLM was cultured in DMEM (Gibco), with fetal bovine serum (Sigma), 100 U/mL penicillin (Gibco) and 0.1 mg/mL streptomycin (Gibco) under standard conditions, and was regularly confirmed to be mycoplasma-free by PCR. […]
8-14 week old male and female NOD-SCID Gamma (NSGTM) mice (bred in-house at the Netherlands Cancer Institute (NKI), Amsterdam, The Netherlands) were subcutaneously injected in the right flank with 1×10^6 BLM tumor cells. Tumors were measured three times per week with a caliper, and when tumors were 100 mm3 (after 7 days) the animals were randomized over the following treatment groups: • 1. […]
Tumor volumes were measured 3 times per week by an independent animal technician in a blinded fashion. Tumor volume was calculated as follows: […]. […]

The next assay has as its system LCLC-103H cells. In words: Calreticulin surface expression in vitro (flow cytometry). It is filed as cell-based, human. Particulars: 48 h. The procedure: (§1) LCLC-103H or MDA-MB-231 cells were grown to 70% to 80% confluence in 6-well plates, washed with serum-free medium and incubated with IgG1-AXL-107-vcMMAE (2 μg/mL), free monomethyl auristatin E (MMAE, SAFC, cat.no SG10; 10 or 50 nM), paclitaxel (1 μM), or isotype control ADC (IgG1-b12-vcMMAE; 2 μg/mL) in serum-free medium (RPMI1640, Lonza BE17-603E) for 48 hours (LCLC-103H) or 72 hours (MDA-MB-231). After incubation, supernatant and cells were collected and washed in PBS/0.1% BSA/0.02% azide (FACS buffer). Cells were then incubated with a phycoerythrin (PE)-conjugated mouse anti-human calreticulin antibody (Enzo, Cat no. ADI-SPA-601PE-D, lot. 10021835) for 30 min at 4° C. in the dark. A PE-conjugated mouse isotype control antibody (Enzo, cat no. ADI-SAB-600PE-D, lot. 08071817) was included as a control. After washing with FACS buffer, cells were analyzed with flow cytometry in the presence of DAPI (BD; cat no. 564907, lot. 8012653) or TO-PRO-3 (Thermo Fisher, cat no. T3605, lot. 1976612). Calreticulin expression was determined as PE positive cells and the percentage of calreticulin positive cells over isotype control was obtained on DAPI or TO-PRO-3 negative cells.
A general note: Flow cytometry measures light scatter and fluorescence of single cells or particles in a stream.

A further assay has as its system MDA-MB-231 cells. Described as above. It is filed as cell-based, human. Particulars: 72 h. The procedure:
as §1

The next assay deals with LXFA 677. Particulars: 4 mg/kg i.v.; Boshuizen et al, Nature Med 2018; cited from earlier work.
Setting [2] is: ADCs 2 μg/mL, MMAE 10 or 50 nM, paclitaxel 1 μM.
The mark [3] stands for this setting: compared to untreated or isotype control ADC.

For the substance “IgG1-AXL-107-vcMMAE: anti-human AXL IgG1-kappa antibody conjugated, on an average of 4 cysteinyl, to MMAE via cleavable mc-val-cit-PABC linker”, the “anti-tumor effect (tumor size)” value in assay [1] is listed as “induced tumor regression”. Also, the results for the “cell surface expression of calreticulin (MFI) compared to untreated cells” value with LCLC-103H cells (setting [2]) and in the assay on MDA-MB-231 cells (setting [2]) were “about 1.4 fold” and “about 3.5 fold”, respectively. The “percentage of calreticulin positive cells” value with LCLC-103H cells (setting [3]) and in the assay on MDA-MB-231 cells (setting [3]) was “increased” each time. In the assay with LXFA 677, the “anti-tumor activity / tumor growth” value is “strong anti-tumor activity”.
